{"source": "patent US12331040B2", "about": "(Karyopharm Therapeutics Inc., priority 2013, dated 2025)", "test_system": "U2OS cells", "assay": "BrdU incorporation and cell cycle analysis by flow cytometry in U2OS cells", "format": "cell-based, human", "conditions": "1 μM, BrdU/7-AAD flow cytometry", "protocol": "U2OS cells were treated with DMSO or 1 μM Compound 585 for one, two or three days. At each time point, cells were treated with 10 μM BrdU for 2 hours, and then collected by trypsinization. Cells were subsequently washed, fixed and stained for BrdU and total DNA (7-AAD). BrdU incorporation and cell cycle analysis was performed using flow cytometry on a BD Fortessa Analyzer. Data was then analyzed using FCS Express 4 software."}
{"smiles": "Nc1ccc(/C=C/C(=O)NCc2cc3cc(-c4ccc(C(=O)N5CCC(F)(F)CC5)cn4)cc(C(F)(F)F)c3o2)cn1", "note": "[Compound 585, (E)-3-(6-aminopyridin-3-yl)-N-((5-(5-(4,4-difluoropiperidine-1-carbonyl)pyridin-2-yl)-7-(trifluoromethyl)benzofuran-2-yl)methyl)acrylamide]", "values": [{"measurement": "cell cycle changes: Sub-G1 phase", "result": "started to appear around 48-72 hours"}, {"measurement": "cell cycle changes: S phase and G2 phase", "setting": "at 48-72 hours", "result": "loss of S phase and increase in G2 phase"}]}
